US20140242093A1, “METHODS AND COMPOSITIONS FOR MODULATING THE INNATE IMMUNE RESPONSE AND/OR MYOGENESIS IN A MAMMALIAN SUBJECT” (FRED HUTCHINSON CANCER RESEARCH CENTER, priority 2011, published 2014)

System: control human primary myoblasts
Assay: Expression microarray of primary myoblasts transduced with lentivirus carrying DUX4-fl, DUX4-s or GFP
Experimental: Primary human myoblasts were collected and cultured as previously described (Snider et al., 2010). Primary myoblasts were maintained at or below 70% confluency for proliferation. For differentiation, cells were allowed to reach 95-100% confluency in growth medium. Once confluency was reached, the cells were changed to differentiation medium (F10 media supplemented with 1% horse serum, 10 μg/mL insulin, and 10 μg/mL transferrin, penicillin/streptomycin) and maintained for 4 days. Human RD cells were grown in DMEM in 10% bovine calf serum (Hyclone) and penicillin/streptomycin. The primary myoblasts were transduced with lentivirus carrying DUX-fl, DUX4- or GFP (MOI=15).
Expression microarrays were performed on the transduced cells at 24 hours after transduction as follows. […] Samples were analyzed by Illumina Human Whole Genome microarrays. Probe intensities were corrected, normalized, and summarized by the Lumi package of Bioconductor (Du et al., 2008). Differentially expressed genes were identified by the LIMMA package of Bioconductor (Wettenhall and Smyth, 2004). Gene set enrichment analysis (GSEA) was performed using the Bioconductor GOstats package (Falcon and Gentleman, 2007).

[1] = 3-fold criteria (>1.584 log2-fold change and FDR<0.01)

## DUX4-fl: full-length DUX4 protein (SEQ ID NO:110), expressed from lentiviral or pCS2 vectors or in vitro translated
  number of genes with increased expression: 1071 genes
2-fold change and FDR<0.01 vs lenti-GFP, 24 hours after transduction
  number of genes with decreased expression: 837 genes
[1]
  number of genes decreased: 244 genes
  number of genes increased: 466 genes
Refseq BQ437417, cultured human skeletal muscle
  BQ437417 (no symbol given) expression fc: −2.514
Refseq NM_000020.1
  fc of ACVRL1 (expression array): −1.01
Refseq NM_000064.1
  fc of C3 (expression array): −1
Refseq NM_000067.1
  CA2 expression fc: 6.091
Refseq NM_000088.3
  fc of COL1A1 (expression array): −0.2992
Refseq NM_000099.2
  CST3 fc: −1.131
Refseq NM_000118.1
  ENG fc: −1.105
Refseq NM_000156.4
  fc of GAMT (expression array): −1.021
Refseq NM_000158.2
  GBE1 fc: −1.129
Refseq NM_000202.3
  fc of IDS (expression array): −1.025
Refseq NM_000217.2
  KCNA1 expression fc: 1.832
Refseq NM_000231.1
  SGCG expression fc: 1.863
Refseq NM_000270.1
  NP expression fc: 6.961
Refseq NM_000314.4
  fc of PTEN (expression array): −1.031
Refseq NM_000341.2
  SLC3A1 expression fc: 2.736
Refseq NM_000346.2
  SOX9 expression fc: 3.099
Refseq NM_000430.2
  fc of PAFAH1B1 (expression array): −0.3583
Refseq NM_000517.3
  HBA2 expression fc: 4.721
Refseq NM_000518.4
  fc of HBB (expression array): −0.354
Refseq NM_000558.3
  HBA1 expression fc: 4.787
Refseq NM_000584.2, cultured human skeletal muscle
  IL8 expression fc: −3.885
Refseq NM_000585.2
  fc of IL15 (expression array): −1.013
Refseq NM_000593.5, cultured human skeletal muscle
  TAP1 expression fc: −3.265
Refseq NM_000600.1
  fc of IL6 (expression array): −0.8024
Refseq NM_000628.3
  IL10RB fc: −1.108
Refseq NM_000690.2
  fc of ALDH2 (expression array): −1.011
Refseq NM_000700.1
  fc of ANXA1 (expression array): −1.001
Refseq NM_000775.2
  fc of CYP2J2 (expression array): −0.06948
Refseq NM_000820.1
  fc of GAS6 (expression array): −1.026
Refseq NM_000902.3
  fc of MME (expression array): −1.046
Refseq NM_000918.3
  P4HB fc: −1.109
Refseq NM_000959.3
  PTGFR fc: −1.089
Refseq NM_001067.2
  TOP2A fc: −1.157
Refseq NM_001071.1
  TYMS fc: −1.125
Refseq NM_001078.2, cultured human skeletal muscle
  VCAM1 expression fc: −3.014
Refseq NM_001141.2
  ALOX15B fc: −1.071
Refseq NM_001150.1, cultured human skeletal muscle
  ANPEP expression fc: −2.118
Refseq NM_001179.3
  ART3 expression fc: 4.363
Refseq NM_001218.3, cultured human skeletal muscle
  CA12 expression fc: −2.629
Refseq NM_001225.3
  fc of CASP4 (expression array): −1.059
Refseq NM_001251.1
  CD68 fc: −1.091
Refseq NM_001288.4
  CLIC1 fc: −1.083
Refseq NM_001338.3
  CXADR expression fc: 2.494
Refseq NM_001386.4
  DPYSL2 fc: −1.1
Refseq NM_001425.1
  EMP3 fc: −1.139
Refseq NM_001459.2
  FLT3LG fc: −1.065
Refseq NM_001511.1, cultured human skeletal muscle
  CXCL1 expression fc: −3.523
Refseq NM_001523.1
  fc of HAS1 (expression array): −1.063
Refseq NM_001535.2
  PRMT2 fc: −1.119
Refseq NM_001543.3
  NDST1 fc: −1.069
Refseq NM_001547.4, cultured human skeletal muscle
  IFIT2 expression fc: −4.315
Refseq NM_001548.3, cultured human skeletal muscle
  IFIT1 expression fc: −4.379
Refseq NM_001549.2, cultured human skeletal muscle
  IFIT3 expression fc: −3.857
Refseq NM_001550.2
  IFRD1 expression fc: 2.99
Refseq NM_001552.2, cultured human skeletal muscle
  IGFBP4 expression fc: −1.937
Refseq NM_001565.2
  fc of CXCL10 (expression array): −0.8766
Refseq NM_001605.2
  AARS fc: −1.067
Refseq NM_001610.1
  ACP2 fc: −1.126
Refseq NM_001656.3
  TRIM23 expression fc: 2.235
Refseq NM_001669.2
  ARSD fc: −1.079
Refseq NM_001698.1
  fc of AUH (expression array): −1.06
Refseq NM_001710.4, cultured human skeletal muscle
  CFB expression fc: −5.623
Refseq NM_001733.4, cultured human skeletal muscle
  C1R expression fc: −2.829
Refseq NM_001753.3
  CAV1 fc: −1.097
Refseq NM_001754.3
  fc of RUNX1 (expression array): −0.2108
Refseq NM_001759.2
  fc of CCND2 (expression array): −1.057
Refseq NM_001769.2
  CD9 expression fc: 1.992
Refseq NM_001797.2
  CDH11 fc: −1.174
Refseq NM_001945.1
  HBEGF expression fc: 3.868
Refseq NM_001953.2, cultured human skeletal muscle
  ECGF1 expression fc: −4.299
Refseq NM_001964.2
  EGR1 expression fc: 3.749
Refseq NM_001987.4
  ETV6 fc: −1.1
Refseq NM_001990.2
  EYA3 expression fc: 2.572
Refseq NM_001995.2
  fc of ACSL1 (expression array): −1.015
Refseq NM_002005.2
  FES fc: −1.108
Refseq NM_002032.2, cultured human skeletal muscle
  FTH1 expression fc: −2.029
Refseq NM_002096.1
  GTF2F1 expression fc: 3.208
Refseq NM_002116.5
  HLA-A fc: −1.08
Refseq NM_002133.1, cultured human skeletal muscle
  HMOX1 expression fc: −1.924
Refseq NM_002145.3
  HOXB2 expression fc: 2.202
Refseq NM_002155.3
  HSPA6 expression fc: 1.994
Refseq NM_002166.4
  ID2 expression fc: 2.336
Refseq NM_002176.2
  fc of IFNB1 (expression array): −0.3894
Refseq NM_002196.2
  INSM1 expression fc: 1.801
Refseq NM_002198.1, cultured human skeletal muscle
  IRF1 expression fc: −2.643
Refseq NM_002201.4, cultured human skeletal muscle
  ISG20 expression fc: −2.94
Refseq NM_002204.1
  fc of ITGA3 (expression array): −1.041
Refseq NM_002229.2
  fc of JUNB (expression array): −1.063
Refseq NM_002230.1
  JUP expression fc: 3.172
Refseq NM_002266.2
  KPNA2 expression fc: 2.416
Refseq NM_002293.2
  fc of LAMC1 (expression array): −0.5108
Refseq NM_002340.3
  fc of LSS (expression array): −1.045
Refseq NM_002342.1
  LTBR fc: −1.155
Refseq NM_002345.3
  LUM fc: −1.126
Refseq NM_002346.1, cultured human skeletal muscle
  LY6E expression fc: −3.251
Refseq NM_002392.2
  fc of MDM2 (expression array): −0.588
Refseq NM_002462.2, cultured human skeletal muscle
  MX1 expression fc: −5.675
Refseq NM_002463.1, cultured human skeletal muscle
  MX2 expression fc: −4.066
Refseq NM_002469.1
  fc of MYF6 (expression array): −1.042
Refseq NM_002478.4
  MYOD1 fc: −1.113
Refseq NM_002505.3
  NFYA expression fc: 2.335
Refseq NM_002535.2, cultured human skeletal muscle
  OAS2 expression fc: −2.711
Refseq NM_002539.1
  ODC1 expression fc: 3.657
Refseq NM_002600.3
  PDE4B fc: −1.143
Refseq NM_002627.3
  PFKP fc: −1.106
Refseq NM_002648.2
  PIM1 expression fc: 2.215
Refseq NM_002685.2
  EXOSC10 expression fc: 1.937
Refseq NM_002687.3
  PNN expression fc: 1.949
Refseq NM_002742.2
  PRKD1 fc: −1.099
Refseq NM_002800.4, cultured human skeletal muscle
  PSMB9 expression fc: −3.137
Refseq NM_002852.2, cultured human skeletal muscle
  PTX3 expression fc: −2.744
Refseq NM_002862.3, cultured human skeletal muscle
  PYGB expression fc: −2.046
Refseq NM_002870.2
  fc of RAB13 (expression array): −1.032
Refseq NM_002897.3
  fc of RBMS1 (expression array): −0.6159
Refseq NM_002898.2
  fc of RBMS2 (expression array): −0.772
Refseq NM_002957.3
  RXRA fc: −1.132
Refseq NM_002982.3, cultured human skeletal muscle
  CCL2 expression fc: −2.681
Refseq NM_002985.2, cultured human skeletal muscle
  CCL5 expression fc: −2.528
Refseq NM_002993.2, cultured human skeletal muscle
  CXCL6 expression fc: −1.994
Refseq NM_002994.3, cultured human skeletal muscle
  CXCL5 expression fc: −2.469
Refseq NM_003039.1, cultured human skeletal muscle
  SLC2A5 expression fc: −1.958
Refseq NM_003059.2
  SLC22A4 fc: −1.134
Refseq NM_003068.3, cultured human skeletal muscle
  SNAI2 expression fc: −2.095
Refseq NM_003078.3
  fc of SMARCD3 (expression array): −1.022
Refseq NM_003089.4
  SNRNP70 expression fc: 1.885
Refseq NM_003107.2
  SOX4 expression fc: 1.809
Refseq NM_003119.2
  SPG7 fc: −1.113
Refseq NM_003135.1
  SRP19 expression fc: 1.866
Refseq NM_003162.2
  fc of STRN (expression array): −0.2348
Refseq NM_003246.2
  THBS1 fc: −1.092
Refseq NM_003335.2, cultured human skeletal muscle
  UBA7 expression fc: −2.561
Refseq NM_003358.1
  fc of UGCG (expression array): −0.8891
Refseq NM_003390.2
  WEE1 fc: −1.099
Refseq NM_003392.3
  WNT5A fc: −1.103
Refseq NM_003400.3
  fc of XPO1 (expression array): −1.04
Refseq NM_003407.2
  fc of ZFP36 (expression array): −1.044
Refseq NM_003439.1
  ZKSCAN1 fc: −1.082
Refseq NM_003492.1
  fc of Cxorfl2 (expression array): −1.02
Refseq NM_003564.1
  fc of TAGLN2 (expression array): −1.002
Refseq NM_003566.2
  fc of EEA1 (expression array): −0.963
Refseq NM_003641.3, cultured human skeletal muscle
  IFITM1 expression fc: −6.118
Refseq NM_003761.2
  fc of VAMP8 (expression array): −1.02
Refseq NM_003762.3
  fc of VAMP4 (expression array): −1.018
Refseq NM_003800.3
  RNGTT expression fc: 2.018
Refseq NM_003804.3
  RIPK1 fc: −1.103
Refseq NM_003810.2
  TNFSF10 fc: −1.127
Refseq NM_003820.2, cultured human skeletal muscle
  TNFRSF14 expression fc: −2.72
Refseq NM_003831.2
  fc of RIOK3 (expression array): −0.5229
Refseq NM_003844.2
  TNFRSF10A fc: −1.126
Refseq NM_003846.1
  PEX11B fc: −1.142
Refseq NM_003869.4, cultured human skeletal muscle
  CES2 expression fc: −2.043
Refseq NM_003879.3, cultured human skeletal muscle
  CFLAR expression fc: −1.94
Refseq NM_003887.2
  fc of ASAP2 (expression array): −1.028
Refseq NM_003914.2
  CCNA1 expression fc: 7.526
Refseq NM_003940.2
  fc of USP13 (expression array): −0.08799
Refseq NM_003995.3
  NPR2 fc: −1.166
Refseq NM_003999.1
  fc of OSMR (expression array): −0.7417
